Measurements from patent publication US20110293757A1, “Compositions Comprising Tea Tree Oil and Methods for the Prevention and Treatment of Cancer” (priority 2008, published 2011).

Experiments:
AE17 mesothelioma = test: Topical treatment of subcutaneous murine AE17 mesothelioma tumours, tumour area by micro-callipers; format: in vivo, C57BL/6J mice; settings: 50 ul topically; 4% terpinen-4-ol, 2% γ-terpinene, 1% α-terpinene, 0.5% 1,8-cineole, 0.5% p-cymene; vs untreated controls
Description: The models used, murine AE17 mesothelioma and murine B16 melanoma tumour, both involve the implantation of tumour cell lines subcutaneously onto the rear flank of fully immuno-competent mice. Palpable tumours arise within 3-14 days.
Female fully immuno-competent C57BL/6J mice between 6-8 weeks of ages are obtained from the Animal Resources Centre (Perth, Australia) and maintained under SPF (specified pathogen free) housing conditions (Animal Care Unit, University of Western Australia).
AE17 cells were derived from the peritoneal cavity of C57BL/6J mice injected with asbestos fibres (Jackaman, 2003) and (Davis, 1992) and are injected subcutaneously at a concentration of 1×10^7 per mouse (Needham, 2006). […]

skin = settings: cited from earlier work
[1] = test system: B16 melanoma, UV induced squamous carcinoma and Lewis lung carcinoma; settings: 18 μg, 3 topical treatments (Ogbourne, 2004); cited from earlier work

SMILES | AE17 tumour growth, components applied singly with DMSO (AE17 mesothelioma) | skin reaction on topical application (skin) | tumour regression [1]
CC1=CCC(O)(C(C)C)CC1 (centres unmarked) [terpinen-4-ol] | lack of efficacy |  | 
CC1=CCC(C(C)C)=CC1 [γ-terpinene] | lack of efficacy |  | 
C/C=C(/C)C(=O)O[C@H]1C(C)=C[C@]23C(=O)[C@@H](C=C(CO)[C@@H](O)[C@]12O)[C@H]1[C@@H](C[C@H]3C)C1(C)C [3-Ingenyl-Angelate] |  | elicits skin irritation | induces tumour regression with just 3 topical treatments
Cc1ccc(C(C)C)cc1 [p-cymene] | lack of efficacy |  | 
CC1=CC=C(C(C)C)CC1 [α-terpinene] | lack of efficacy |  | 
CC12CCC(CC1)C(C)(C)O2 [1,8-cineole] | lack of efficacy |  | 
CC(C)Cn1cnc2c(N)nc3ccccc3c21 [Imiquimod] |  | redness, drying and scabbing | 
